# Patent US8163724B2, “Glucocorticosteroids, processes for their preparation, pharmaceutical compositions containing them and their use in therapy” (AstraZeneca AB, priority 2007, dated 2012)
# Biological target: T1, recombinant human GR (Homo sapiens, UniProt P04150)
# T1 construct: purchased Panvera/Invitrogen P2812 (kit P2893)
# T1 sequence (P04150 1-777): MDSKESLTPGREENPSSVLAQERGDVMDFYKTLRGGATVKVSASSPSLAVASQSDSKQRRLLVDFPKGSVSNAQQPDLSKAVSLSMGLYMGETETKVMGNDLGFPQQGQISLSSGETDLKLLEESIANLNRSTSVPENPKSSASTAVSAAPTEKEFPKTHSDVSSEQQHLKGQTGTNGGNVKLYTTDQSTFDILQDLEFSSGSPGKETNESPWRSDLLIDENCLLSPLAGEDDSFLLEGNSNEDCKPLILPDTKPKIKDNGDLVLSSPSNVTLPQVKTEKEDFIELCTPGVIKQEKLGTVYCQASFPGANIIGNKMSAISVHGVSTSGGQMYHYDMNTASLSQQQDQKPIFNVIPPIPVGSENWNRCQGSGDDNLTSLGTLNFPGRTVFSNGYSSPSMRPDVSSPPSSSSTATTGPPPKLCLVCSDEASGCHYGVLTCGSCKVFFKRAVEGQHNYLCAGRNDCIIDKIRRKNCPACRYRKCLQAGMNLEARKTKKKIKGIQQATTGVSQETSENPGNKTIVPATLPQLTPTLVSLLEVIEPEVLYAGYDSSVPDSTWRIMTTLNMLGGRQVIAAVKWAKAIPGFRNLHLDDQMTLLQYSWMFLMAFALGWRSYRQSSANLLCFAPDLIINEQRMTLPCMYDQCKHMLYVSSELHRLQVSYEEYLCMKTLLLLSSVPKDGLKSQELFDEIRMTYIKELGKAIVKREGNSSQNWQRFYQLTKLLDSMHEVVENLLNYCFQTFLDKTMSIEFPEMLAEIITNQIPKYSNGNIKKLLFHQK
# Assay: Human Glucocorticoid Receptor (GR) Assay (fluorescence polarization, Panvera/Invitrogen kit)
# Type: binding
# Details: fluorescence polarization; GS Red tracer; 2 hours at room temperature; 100% control 10 μM Dexamethasone; read-out: Inhibition of GR binding, IC50
# Procedure: Human Glucocorticoid Receptor (GR) Assay
# The assay is based on a commercial kit from Panvera/Invitrogen (Part number P2893). The assay technology is fluorescence polarization. […] The GR and Stabilizing Peptide reagents are stored at −70° C. while the GS Red is stored at −20° C. Also included in the kit are 1M DTT (Panvera, Part number P2325, stored at −20° C.) and GR Screening buffer 10× (Panvera, Part number P2814, stored at −70° C. initially but once thawed stored at room temperature). Avoid repeated freeze/thaws for all reagents. The GR Screening buffer 10× comprises 100 mM potassium phosphate, 200 mM sodium molybdate, 1 mM EDTA and 20% DMSO.
# 0% control was 100% DMSO and 100% control was 10 μM Dexamethasone. Background solution (8 μL; assay buffer 10×, Stabilizing Peptide, DTT and ice cold MQ water) was added to the background wells. GS Red solution (7 μL; assay buffer 10×, Stabilizing Peptide, DTT, GS Red and ice cold water) was added to all wells except background wells. GR solution (7 μL; assay buffer 10×, Stabilizing Peptide, DTT, GR and ice cold water) was added to all wells. The plate was sealed and incubated in a dark at room temperature for 2 hours.
row,SMILES,IC50
1,"CCC(=O)O[C@]1(C(=O)SCC(N)=O)CC[C@H]2[C@@H]3CCC4=Cc5c(cnn5-c5ccc(F)cc5)C[C@]4(C)[C@H]3[C@@H](O)C[C@@]21C [Example 13, (1R,3aS,3bS,10aR,10bS,11S,12aS)-{[(2-Amino-2-oxoethyl)thio]carbonyl}-7-(4-fluorophenyl)-11-hydroxy-10a,12a-dimethyl-1,2,3,3a,3b,4,5,7,10,10a,10b,11,12,12a-tetradecahydrocyclopenta[5,6]naphtho[1,2-f]indazol-1-yl propanoate]",3.1 nM
2,"CCC(=O)O[C@]1(C(=O)SCOC)CC[C@H]2[C@@H]3CCC4=Cc5c(cnn5-c5ccc(F)cc5)C[C@]4(C)[C@H]3[C@@H](O)C[C@@]21C [Example 14, (1R,3aS,3bS,10aR,10bS,11S,12aS)-7-(4-Fluorophenyl)-11-hydroxy-{[(methoxy-methyl)thio]carbonyl}-10a,12a-dimethyl-1,2,3,3a,3b,4,5,7,10,10a,10b,11,12,12a-tetradecahydrocyclopenta[5,6]naphtho[1,2-f]indazol-1-yl propanoate]",3.6 nM
3,"CCC(=O)O[C@]1(C(=O)SCCO)CC[C@H]2[C@@H]3CCC4=Cc5c(cnn5-c5ccc(F)cc5)C[C@]4(C)[C@H]3[C@@H](O)C[C@@]21C [Example 15, (1R,3aS,3bS,10aR,10bS,11S,12aS)-7-(4-Fluorophenyl)-11-hydroxy-1-{[(2-hydroxyethyl)thio]carbonyl}-10a,12a-dimethyl-1,2,3,3a,3b,4,5,7,10,10a,10b,11,12,12a-tetradecahydropcyclopenta[5,6]naphtho[1,2-f]indazol-1-yl propanoate]",3.7 nM
4,"CCC(=O)O[C@]1(C(=O)SCCC#N)CC[C@H]2[C@@H]3CCC4=Cc5c(cnn5-c5ccc(F)cc5)C[C@]4(C)[C@H]3[C@@H](O)C[C@@]21C [Example 16, (1R,3aS,3bS,10aR,10bS,11S,12aS)-{[(2-Cyanoethyl)thio]carbonyl}-7-(4-fluoro-phenyl)-11-hydroxy-10a,12a-dimethyl-1,2,3,3a,3b,4,5,7,10,10a,10b,11,12,12a-tetradecahydrocyclopenta[5,6]naphtho[1,2-f]indazol-1-yl propanoate]",3.4 nM
5,"CCC(=O)O[C@]1(C(=O)SCC(C)=O)CC[C@H]2[C@@H]3CCC4=Cc5c(cnn5-c5ccc(F)cc5)C[C@]4(C)[C@H]3[C@@H](O)C[C@@]21C [Example 17, (1R,3aS,3bS,10aR,10bS,11S,12aS)-7-(4-Fluorophenyl)-11-hydroxy-10a,12a-dimethyl-1-{[(2-oxopropyl)thio]carbonyl}-1,2,3,3a,3b,4,5,7,10,10a,10b,11,12,12a-tetradecaphydrocyclopenta[5,6]naphtho[1,2-f]indazol-1-yl propanoate]",4.8 nM
6,"CCC(=O)O[C@]1(C(=O)SCC#CCO)CC[C@H]2[C@@H]3CCC4=Cc5c(cnn5-c5ccc(F)cc5)C[C@]4(C)[C@H]3[C@@H](O)C[C@@]21C [Example 18, (1R,3aS,3bS,10aR,10bS,11S,12aS)-7-(4-Fluorophenyl)-11-hydroxy-1-{[(4-hydroxy-but-2-yn-1-yl)thio]carbonyl}-10a,12a-dimethyl-1,2,3,3a,3b,4,5,7,10,10a,10b,11,12,12a-tetradecahydrocyclopenta[5,6]naphtho[1,2-f]indazol-1-yl propanoate]",4.1 nM
7,"CCC(=O)O[C@]1(C(=O)SCF)CC[C@H]2[C@@H]3CCC4=Cc5c(cnn5-c5ccc(F)cc5)C[C@]4(C)[C@H]3[C@@H](O)C[C@@]21C [Example 19, (1R,3aS,3bS,10aR,10bS,11S,12aS)-1-{[(Fluoromethyl)thio]carbonyl}-7-(4-fluoro-phenyl)-11-hydroxy-10a,12a-dimethyl-1,2,3,3a,3b,4,5,7,10,10a,10b,11,12,12a-tetradecahydrocyclopenta[5,6]naphtho[1,2-f]indazol-1-yl propanoate]",3.7 nM
8,"C#CCSC(=O)[C@@]1(OC(=O)CC)CC[C@H]2[C@@H]3CCC4=Cc5c(cnn5-c5ccc(F)cc5)C[C@]4(C)[C@H]3[C@@H](O)C[C@@]21C [Example 20, (1R,3aS,3bS,10aR,10bS,11S,12aS)-7-(4-fluorophenyl)-11-hydroxy-10a,12a-dimethyl-1-[(prop-2-yn-1-ylthio)carbonyl]-1,2,3,3a,3b,4,5,7,10,10a,10b,11,12,12a-tetradecaphydrocyclopenta[5,6]naphtho[1,2-f]indazol-1-yl propanoate]",7.7 nM
9,"CCC(=O)O[C@]1(C(=O)SC)CC[C@H]2[C@@H]3CCC4=Cc5c(cnn5-c5ccc(F)cc5)C[C@]4(C)[C@H]3[C@@H](O)C[C@@]21C [Example 21, (1R,3aS,3bS,10aR,10bS,11S,12aS)-7-(4-Fluorophenyl)-11-hydroxy-10a,12a-dimethyl-1-[(methylthio)carbonyl]-1,2,3,3a,3b,4,5,7,10,10a,10b,11,12,12a-tetradecahydropcyclopenta[5,6]naphtho[1,2-f]indazol-1-yl propanoate]",2.7 nM
10,"CCC(=O)O[C@]1(C(=O)SCC(=O)N(C)C)CC[C@H]2[C@@H]3CCC4=Cc5c(cnn5-c5ccc(F)cc5)C[C@]4(C)[C@H]3[C@@H](O)C[C@@]21C [Example 22, (1R,3aS,3bS,10aR,10bS,11S,12aS)-1-({[2-(Dimethylamino)-2-oxoethyl]thio}carbonyl)-7-(4-fluorophenyl)-11-hydroxy-10a,12a-dimethyl-1,2,3,3a,3b,4,5,7,10,10a,10b,11,12,12a-tetradecahydrocyclopenta[5,6]naphtho[1,2-f]indazol-1-yl propanoate]",3.9 nM
11,"C=CCSC(=O)[C@@]1(OC(=O)CC)CC[C@H]2[C@@H]3CCC4=Cc5c(cnn5-c5ccc(F)cc5)C[C@]4(C)[C@H]3[C@@H](O)C[C@@]21C [Example 23, (1R,3aS,3bS,10aR,10bS,11S,12aS)-7-(4-Fluorophenyl)-11-hydroxy-10a,12a-dimethyl-1-[(prop-2-en-1-ylthio)carbonyl]-1,2,3,3a,3b,4,5,7,10,10a,10b,11,12,12a-tetradecahydropcyclopenta[5,6]naphtho[1,2-f]indazol-1-yl propanoate]",13 nM
12,"CCC(=O)O[C@]1(C(=O)SCCCO)CC[C@H]2[C@@H]3CCC4=Cc5c(cnn5-c5ccc(F)cc5)C[C@]4(C)[C@H]3[C@@H](O)C[C@@]21C [Example 24, (1R,3aS,3bS,10aR,10bS,11S,12aS)-7-(4-Fluorophenyl)-11-hydroxy-1-{[(3-hydroxy-propyl)thio]carbonyl}-10a,12a-dimethyl-1,2,3,3a,3b,4,5,7,10,10a,10b,11,12,12a-tetradecahydrocyclopenta[5,6]naphtho[1,2-f]indazol-1-yl propanoate]",5.1 nM
13,"CCC(=O)O[C@]1(C(=O)SCC2CC2)CC[C@H]2[C@@H]3CCC4=Cc5c(cnn5-c5ccc(F)cc5)C[C@]4(C)[C@H]3[C@@H](O)C[C@@]21C [Example 25, (1R,3aS,3bS,10aR,10bS,11S,12aS)-1-{[(Cyclopropylmethyl)thio]carbonyl}-7-(4-fluorophenyl)-11-hydroxy-10a,12a-dimethyl-1,2,3,3a,3b,4,5,7,10,10a,10b,11,12,12a-tetradecahydrocyclopenta[5,6]naphtho[1,2-f]indazol-1-yl propanoate]",10 nM
14,"CCC(=O)O[C@]1(C(=O)SCCF)CC[C@H]2[C@@H]3CCC4=Cc5c(cnn5-c5ccc(F)cc5)C[C@]4(C)[C@H]3[C@@H](O)C[C@@]21C [Example 26, (1R,3aS,3bS,10aR,10bS,11S,12aS)-1-{[(2-Fluoroethyl)thio]carbonyl}-7-(4-fluoro-phenyl)-11-hydroxy-10a,12a-dimethyl-1,2,3,3a,3b,4,5,7,10,10a,10b,11,12,12a-tetradecahydrocyclopenta[5,6]naphtho[1,2-f]indazol-1-yl propanoate]",4.3 nM
